Here are results for one compound from patent US20200048267A1, “OGA INHIBITOR COMPOUNDS” (Janssen Pharmaceutica NV, priority 2017, published 2020).

In data set [1] the target is T1, recombinant human Meningioma Expressed Antigen 5 (MGEA5), also referred to as O-GlcNAcase (OGA) (Homo sapiens, UniProt O60502).
T1 construct: Full length OGA enzyme was purchased at OriGene (cat # TP322411); purchased OriGene TP322411
T1 sequence (O60502 1-916): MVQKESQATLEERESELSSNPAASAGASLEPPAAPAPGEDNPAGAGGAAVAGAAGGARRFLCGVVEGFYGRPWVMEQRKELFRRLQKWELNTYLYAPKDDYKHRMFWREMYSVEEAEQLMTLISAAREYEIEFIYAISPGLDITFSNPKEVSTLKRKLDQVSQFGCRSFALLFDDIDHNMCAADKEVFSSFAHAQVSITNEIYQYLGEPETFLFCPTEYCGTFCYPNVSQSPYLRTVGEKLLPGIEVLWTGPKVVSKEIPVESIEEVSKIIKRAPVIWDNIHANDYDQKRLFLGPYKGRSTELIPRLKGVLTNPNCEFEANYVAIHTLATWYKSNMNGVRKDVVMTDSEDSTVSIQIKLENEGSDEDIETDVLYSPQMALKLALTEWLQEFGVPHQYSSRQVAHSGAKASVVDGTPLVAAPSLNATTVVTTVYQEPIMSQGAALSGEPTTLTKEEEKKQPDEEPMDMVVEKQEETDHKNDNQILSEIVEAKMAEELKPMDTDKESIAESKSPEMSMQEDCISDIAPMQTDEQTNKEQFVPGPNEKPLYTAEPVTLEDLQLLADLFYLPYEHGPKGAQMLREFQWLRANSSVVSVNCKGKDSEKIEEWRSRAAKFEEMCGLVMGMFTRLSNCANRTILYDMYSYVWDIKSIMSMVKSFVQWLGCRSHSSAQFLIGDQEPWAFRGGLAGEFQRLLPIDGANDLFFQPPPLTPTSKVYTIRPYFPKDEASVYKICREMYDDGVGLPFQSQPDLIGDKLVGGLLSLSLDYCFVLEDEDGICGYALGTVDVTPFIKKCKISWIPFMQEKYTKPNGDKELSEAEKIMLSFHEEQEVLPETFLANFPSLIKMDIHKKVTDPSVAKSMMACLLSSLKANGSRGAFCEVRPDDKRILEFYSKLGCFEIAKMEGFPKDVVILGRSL
Description: OGA biochemical assay (inhibition of FM-GlcNAc hydrolysis, fluorescence).

A further data set addresses T2, OGA (Homo sapiens, UniProt O60502).
T2 construct: HEK293 cells inducible for P301L mutant human Tau (isoform 2N4R) were established at Janssen; endogenous in cells; host or cells: HEK293 cells inducible for P301L mutant human Tau (2N4R)
T2 sequence (O60502 1-916): T1 sequence (O60502 1-916)
Nature of the data set: OGA cellular assay (ICC detection of O-GlcNAcylated proteins in HEK293 cells inducible for P301L mutant human Tau). Particulars: 6 hours incubation. Type of data set: cell-based.

The compound `Cc1cc(N2CCC3(CCN(C(C)c4ccc5sc(C)nc5c4)C3)C2)nc(C)n1` (centres unmarked) [Product 31] had a melting point of 230 °C. The maximal effect (Emax) in data set [1] (read-out: ENZYMATIC Emax (%)) stood at 102%. Moreover, in data set [1] (read-out: ENZYMATIC hOGA, pIC50 (converted)), the IC50 is 33.9 nM. At OGA, this compound came in with a maximal response (Emax) of 23.7%. Moreover, the EC50 at OGA (read-out: CELLULAR hOGA, pEC50 (converted)) is greater than 1000 nM.

The Emax is the size of the effect at its maximum, as opposed to the concentration needed. What is called melting point is the temperature, or range, at which the solid turns liquid.
